Biological target: T1, LXRα (Homo sapiens, UniProt Q13133)
T1 construct: Co-transfection expression plasmids, comprising full-length LXRα (pCMX-h LXRα); expressed in transfected cells; host or cells: CV-1 African green monkey kidney cells, transient transfection with FuGENE6
T1 sequence (Q13133 1-447): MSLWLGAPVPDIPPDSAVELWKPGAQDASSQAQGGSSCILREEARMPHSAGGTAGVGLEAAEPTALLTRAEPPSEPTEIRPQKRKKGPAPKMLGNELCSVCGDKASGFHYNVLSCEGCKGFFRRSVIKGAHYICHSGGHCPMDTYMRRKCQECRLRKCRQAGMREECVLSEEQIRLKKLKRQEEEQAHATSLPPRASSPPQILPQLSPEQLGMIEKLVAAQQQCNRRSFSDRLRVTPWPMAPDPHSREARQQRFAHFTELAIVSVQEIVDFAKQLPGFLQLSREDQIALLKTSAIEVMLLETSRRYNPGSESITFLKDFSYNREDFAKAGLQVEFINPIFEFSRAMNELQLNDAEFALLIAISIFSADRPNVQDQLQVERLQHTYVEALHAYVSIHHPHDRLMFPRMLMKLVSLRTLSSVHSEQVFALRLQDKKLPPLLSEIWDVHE
T1 sequence (P19793 1-462 partner): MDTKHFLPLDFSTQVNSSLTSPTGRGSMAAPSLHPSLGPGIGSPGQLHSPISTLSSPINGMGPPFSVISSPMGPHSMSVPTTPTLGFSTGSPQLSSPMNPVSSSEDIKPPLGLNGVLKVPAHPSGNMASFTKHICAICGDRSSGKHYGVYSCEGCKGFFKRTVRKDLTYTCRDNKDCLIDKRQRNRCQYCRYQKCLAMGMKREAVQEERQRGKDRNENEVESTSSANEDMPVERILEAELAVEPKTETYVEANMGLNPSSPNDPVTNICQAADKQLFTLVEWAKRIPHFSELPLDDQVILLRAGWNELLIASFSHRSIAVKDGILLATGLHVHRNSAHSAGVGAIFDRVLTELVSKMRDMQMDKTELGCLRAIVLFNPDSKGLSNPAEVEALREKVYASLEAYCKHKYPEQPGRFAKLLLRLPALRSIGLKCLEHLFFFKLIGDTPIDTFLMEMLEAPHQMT
Assay: LXR/LXRE co-transfection assay (LXRα)
Format: cell-based
Conditions: for EC50: CV-1 cells, LXRE luciferase reporter; for Emax: efficacy relative to high control N-(3-((4-fluorophenyl)-(naphthalene-2-sulfonyl)amino)propyl)-2,2-dimethylpropionamide, read-out: LXRα Eff (%)
Excerpt: To measure the ability of compounds to activate or inhibit the transcriptional activity of LXR in a cell based assay, the co-transfection assay was used. It has been shown that LXR functions as a heterodimer with RXR. For the co-transfection assay, expression plasmids for LXRα and LXRβ are introduced separately via transient transfection into mammalian cells along with a luciferase reporter plasmid that contains one copy of a DNA sequence that is bound by LXR-RXR heterodimers (LXRE; Willy, P. et. al. 1995). LXRs heterodimerize with the endogenous RXR. Treatment of transfected cells with an LXR agonist increases the transcriptional activity of LXR, which is measured by an increase in luciferase activity.
Co-transfection expression plasmids, comprising full-length LXRα (pCMX-h LXRα or LXRβ (pCMX-hLXRβ), reporter plasmid (LXREx1-Tk-Luciferase), and control (pCMX-Galactosidase expression vector) (Willey et al. Genes & Development 9 1033-1045 (1995)).
CV-1 cells were prepared 24 hours prior to the experiment by plating them into T-175 flasks or 500 cm^2 dishes in order to achieve 70-80% confluency on the day of the transfection. The number of cells to be transfected was determined by the number of plates to be screened. Each well of a 384 well plate requires ˜8000 cells. DNA Transfection Reagent was prepared by mixing the required plasmid DNAs with a cationic lipid transfection reagent FuGENE6 (Roche) by following the instructions provided with the reagents. Optimal DNA amounts were determined empirically per cell line and size of vessel to be transfected. For each T175 cm^2 flask a total of 20 μg of DNA, 60 μl of Fugene 6 and 1 ml of Optimem was mixed and added. Cells were then incubated at least 5 hours at 37° C. to prepare screening cells.
Assay plates were prepared by dispensing 5 μL, of compound per well of a 384 well plate to achieve final compound concentration of 10 μM and no more than 0.5% DMSO. Media was removed from the screening cells, the cells trypsinized, harvested cells by centrifugation, counted, and plated at a density of approximately 8000 cells per well in the 384 well assay plate prepared above in a volume of about 45 μL. Assay plates containing both compounds and screening cells (50 μL, in total volume) were incubated for 20 hours at 37° C.
After incubation with compounds, media was removed from the cells and luciferase assay reagent (30 μL/well) added. After ˜2 minutes at ambient temperature, the assay plates were read on a luminometer (PE Biosystems Northstar reader with on-board injectors, or equivalent).
The LXR/LXRE co-transfection assay can be used to establish the EC50/IC50 values for potency and percent activity or inhibition for efficacy. Efficacy defines the activity of a compound relative to a high control ((N-(3-((4-fluorophenyl)-(naphthalene-2-sulfonyl)amino)propyl)-2,2-dimethylpropionamide)) or a low control (DMSO/vehicle). The dose response curves are generated from a 10 point curve with concentrations differing by ½ LOG units.
The data from this assay is fitted to the following equation, from which the EC50 value may be solved: Y=Bottom+(Top−Bottom)/(1+10^((logEC50-X)*HillSlope)).
The EC50/IC50 is therefore defined as the concentration at which an agonist or antagonist elicits a response that is half way between the Top (maximum) and Bottom (baseline) values. The EC50/IC50 values represented are the averages of at least 2 and normally 3 independent experiments. The determination of the relative efficacy or % control for an agonist is by comparison to the maximum response achieved by ((N-(3-((4-fluorophenyl)-(naphthalene-2-sulfonyl)-amino)propyl)-2,2-dimethylpropionamide) that is measured individually in each dose response experiment.

Structure (SMILES) | EC50 [µM] | Emax [%]
CC(C)(O)c1cn(-c2ccc(-c3cc(F)c(CO)c(S(C)(=O)=O)c3)cc2F)c(C(C)(C)c2ccccc2F)n1 [Example 8, 2-{1-(3,3′-Difluoro-4′-hydroxymethyl-5′-methanesulfonyl-biphenyl-4-yl)-2-[2-(2-fluorophenyl)propan-2-yl]-1H-imidazol-4-yl}-propan-2-ol] | < 0.1 | 10
CC(C)(O)c1cn(-c2ccc(-c3cc(F)c(CO)c(S(C)(=O)=O)c3)cc2)c(C(C)(C)c2c(Cl)cccc2Cl)n1 [Example 5, 2-(2-(2-(2,6-dichlorophenyl)propan-2-yl)-1-(3′-fluoro-4′-(hydroxymethyl)-5′-(methylsulfonyl)biphenyl-4-yl)-1H-imidazol-4-yl)propan-2-ol] | < 0.1 | 25
Cc1ccccc1Cc1nc(C(C)(C)O)cn1-c1ccc(-c2cc(F)c(CO)c(S(C)(=O)=O)c2)cc1 [Example 17, 2-(1-(3′-fluoro-4′-(hydroxymethyl)-5′-(methylsulfonyl)biphenyl-4-yl)-2-(2-methylbenzyl)-1H-imidazol-4-yl)propan-2-ol] | 0.101 to 1 | 13
CC(C)(O)c1cn(-c2ccc(-c3cccc(S(C)(=O)=O)c3)cc2)c(C(C)(C)c2ccccc2Cl)n1 [Compound No. 19, Table 1, WO 2007/002563, reference compound] | 0.101 to 1 | 38
CC(C)(O)c1cn(-c2ccc(-c3cc(F)c(CO)c(S(C)(=O)=O)c3)cc2F)c(Cc2ccc(Cl)cc2Cl)n1 [Example 11, 2-(2-(2,4-dichlorobenzyl)-1-(3,3′-difluoro-4′-(hydroxymethyl)-5′-(methylsulfonyl)biphenyl-4-yl)-1H-imidazol-4-yl)propan-2-ol] | > 1 | 

From patent US8618154B2, “LXR modulators” (Bristol-Myers Squibb Company, priority 2009, dated 2013)
